This is an account of results in patent US12264156B2, “Compounds and pharmaceutical compositions thereof for the treatment of diseases” (GALAPAGOS NV, priority 2018, dated 2025).

Assay [1] deals with T1, SIK2 (Homo sapiens, UniProt Q9H0K1).
T1 construct: purchased ThermoFisher Scientific PV4792
The assay can be described thus: ADP-Glo kinase assay, SIK2. It is filed as biochemical. To be noted: ADP-Glo SIK kinase assay. In a few lines:
(§1)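 Enzyme–substrate mix was started with ATP and incubated 120 min at RT. ADP formed was quantified by ADP-Glo: 40 min ATP depletion, then 30 min detection reagent converting ADP to ATP for luciferase luminescence, which rises with kinase activity. Controls: 1% DMSO and 10 μM staurosporine (final).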

Assay [2] concerns LPS-induced TNFα in monocytes. The assay is described as follows: Monocytes assay: LPS-triggered TNFα (ELISA). Type of assay: cell-based, human. Particulars: Homo sapiens, Monocyte, LPS 200 ng/mL, supernatant after 4 h. How it is done: (§2) SIK inhibition inhibits TNFα and increases IL-10 release in LPS triggered monocyte-derived macrophages (MdM) and dendritic cells (MdDCs) (Clark et al. 2012; Sundberg et al. 2014; Ozanne et al. 2015). This assay evaluates illustrative compounds of the invention for their inhibition of LPS-induced TNFα and LPS triggered IL-10 secretion in monocytes.
(§3) PBMCs are isolated from human blood samples (buffycoats). The buffy coat is aseptically transferred into a 50 mL Falcon tube, and diluted 1/2 in PBS. Falcon tubes are filled with 20 mL Lymphoprep™, on top of which 25 mL of the buffy coat is carefully added, tubes are centrifuged for 35 min at 400 g in temperature controlled centrifuge, without brake, at 25° C. PBMCs are aspirated from the white interface layer between sample and Lymphoprep™. PBMCs are washed five times in PBS. Cells are resuspended in RPMI 1640 complete medium supplemented with 10% FBS, 1% P/S, and cell density is determined using a hematologic analyzer (Sysmex XS-500i).
(§4) PBMCs are centrifuged at 300×g for 10 min and resuspended at a density of 1.0*10^7 cells/80 μL Miltenyi buffer (PBS, pH 7.4, 1% FBS, 2 mM EDTA).
(§5) Starting from this point of the protocol all steps are performed on ice. 20 μL of CD14+ micro-beads are added per 1.0*10^7 cells, the tube is mixed and incubated for 15 min in the fridge at 4° C. Cell suspension volume is adjusted to total volume of 100 mL using Miltenyi buffer, mixed gently and subsequently centrifuged for 10 min at 300×g. Supernantant is discarded and cell pellet is resuspended in 12 mL of Miltenyi buffer.
(§6) Four LS columns are placed in the MACS Separator (magnet) from Miltenyi Biotec, and are prewet by rinsing with 3 mL of MACS buffer per column. Three mL of cell suspension is added onto the column (max 1*10^8 of labelled cells/column), and columns are subsequently washed 3 times with 3 mL of Miltenyi buffer.
(§7) The columns are removed from the magnets, and 5 mL of Miltenyi buffer are added to the column to flush out the CD14+ fraction by pushing the plunger into the column. The flushed fractions are collected in a fresh 50 mL Falcon and volume is adjusted to 30 mL using Miltenyi buffer, cells are centrifuged for 10 min at 300×g. The obtained cell pellet is resuspended in 10 mL RPMI w/o FBS, and cell density is determined using a hematologic analyser (Sysmex XS-500i). 100 000 cells are seeded in 80 μL per well of a 96-well plate in RPMI 1640 medium supplemented with 10% FBS, 1% P/S.
(§8) A compound dilution plate is made in 100% DMSO by 3-fold dilution of 10 mM stock solution. An intermediate dilution plate (10× final concentration) is made by diluting the compound dilution plate 50-fold in RPMI medium.
(§9) 10 μL of the 10× final concentration compound is added to the cells and incubated for 1 h at 37° C. before addition of trigger. No trigger conditions/trigger conditions are spiked with equal final DMSO concentrations of 0.2% DMSO. 10 μL of 10×LPS (final conc. 200 ng/mL) solution are added to all wells except for the ‘no trigger wells’ where 10 μL medium is added. Supernatant is collected after 4 h of LPS triggering.
A Lumitrac 600 Greiner 384-well plate is coated with 40 μL of capture antibody (BD Pharmingen, Cat #551220) reaching a final concentration of 1 μg/mL in 1×PBS and stored overnight at 4° C.
The plate is then washed once with PBST (PBS+0.05% Tween20) and once with PBS followed by the addition of 100 μL of blocking buffer (1% Bovine Serum Albumin (BSA)−5% Sucrose) and plates are sealed and incubated for at least 4 h at RT. After washing the plate once with PBST and once with PBS, […]. Plates are washed twice with PBST, and once with PBS, after which 35 μL of the detection antibody is added (final concentration 0.25 μg/mL diluted in dilution buffer) and plates are incubated for at least 2 h at RT. […]

Assay [3] has as its system LPS triggered IL-10 secretion in monocytes. The assay is described as follows: Monocytes assay: LPS-triggered IL-10 (ELISA). It is filed as cell-based, human. To be noted: LPS 200 ng/mL, supernatant after 4 h, maximal fold change vs LPS only. How it is done:
as §2, §3, §4, §5, §6, §7, §8, §9
A Lumitrac 600 Greiner 384-well plate is coated with 40 μL of capture antibody (final concentration of 1 μg/mL in 1×PBS) and stored overnight at 4° C. The next day the plate is washed three times with PBST (PBS+0.05% Tween20) and once with PBS followed by the addition of 100 μL of blocking buffer (1% BSA−5% Sucrose) and plates are sealed and incubated for at least 4 h at RT. After washing the plate once with PBST and once with PBS, 40 μL of standard or sample are added (IL-10 standard curve is prepared using a 1/2 serial dilution starting from […]; dilutions are made in dilution buffer (PBS+1% BSA)). Plates are washed twice with PBST, and once with PBS, after which 35 μL of the detection antibody is added (final concentration 0.143 μg/mL diluted in dilution buffer) and plates are incubated for at least 2 h at RT. […]

Assay [4] concerns the target T2, SIK3 (Homo sapiens, UniProt Q9Y2K2).
T2 construct: purchased SignalChem S12-11G-100
The assay can be described thus: ADP-Glo kinase assay, SIK3. Type of assay: biochemical. Particulars: ADP-Glo SIK kinase assay. In a few lines:
as §1

In assay [5] the target is T3, SIK1 (Homo sapiens, UniProt P57059).
T3 construct: purchased Carna Biosciences 02-131
The assay can be described thus: ADP-Glo kinase assay, SIK1. To be noted: ADP-Glo SIK kinase assay. It is filed as biochemical. The gist of the method: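 ADP-Glo, RT throughout. Enz/substrate + ATP, 120 min; ADP-Glo reagent 40 min (ATP depletion); detection reagent 30 min; luminescence read. Neg ctrl 1% DMSO, pos ctrl 10 μM staurosporine, final concs.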

Assay [6] deals with LPS-induced TNFα in monocyte-derived macrophages (MdM). The assay can be described thus: MdM assay: LPS-triggered TNFα (ELISA). Particulars: Homo sapiens, Macrophage, 20 h, monocyte-derived macrophages, LPS 200 ng/mL, supernatant after 20 h; read-out: TNFα EC50. It is filed as cell-based, human. How it is done: This assay evaluates illustrative compounds of the invention for their inhibition of LPS-induced TNFα and LPS triggered IL-10 secretion in monocyte-derived macrophages.
PBMCs are isolated from human blood samples (buffycoats). The buffy coat is aseptically transferred into a 50 mL Falcon tube, and diluted 1/2 in PBS. Falcon tubes are filled with 20 mL Lymphoprep™, on top of which 25 mL of the buffy coat is carefully added, tubes are centrifuged for 35 min at 400 g in temperature controlled centrifuge, without brake, at 25° C. PBMCs are aspirated from the white interface layer between sample and Lymphoprep™. PBMCs are washed five times in PBS.
as §4, §5, §6
The columns are removed from the magnets, and 5 mL of Miltenyi buffer are added to the column to flush out the CD14+ fraction by pushing the plunger into the column. The flushed fractions are collected in a fresh 50 mL Falcon and volume is adjusted to 30 mL using Miltenyi buffer, cells are centrifuged for 10 min at 300×g. The obtained cell pellet is resuspended in 10 mL RPMI w/o FBS, and cell density is determined using a hematologic analyser (Sysmex XS-500i).
On day 10, MdMs are triggered and compound is added.
as §8
Medium is carefully removed from cell plates using multichannel pipette, and replaced by 80 μL fresh medium. 10 μL of the 10× final concentration compound is added to the cells and incubated for 1 hour at 37° C. before addition of trigger. No trigger conditions/trigger conditions are spiked with equal final DMSO concentrations of 0.2% DMSO. 10 μL of 10×LPS (final conc. 200 ng/mL) solution are added to all wells except for the ‘no trigger wells’ where 10 μL medium is added. Supernatant is collected after 2 h (IL-10 determination) and after 20 h (TNFα determination) of LPS triggering.
The plate is then washed once with PBST (PBS+0.05% Tween20) and once with PBS followed by the addition of 100 μL of blocking buffer (1% Bovine Serum Albumin (BSA)−5% Sucrose) and plates are sealed and incubated for at least 4 h at RT. After washing the plate once with PBST and once with PBS, 40 μL of standard or sample are added (TNFα standard curve is prepared using a 1/2 serial dilution starting from […]; dilutions are made in dilution buffer (PBS+1% BSA)). Plates are washed twice with PBST, and once with PBS, after which 35 μL of the detection antibody is added (final concentration 0.25 μg/mL diluted in dilution buffer) and plates are incubated for at least 2 h at RT. Plates are washed twice with PBST, and once with PBS, where after 35 μL of Strep-HRP conjugate (0.5 μg/mL final concentration diluted in dilution buffer) is added. Plates are incubated in the dark, at RT for at least 45 min but no longer than 1 hour. Plates are washed twice with PBST, and once with PBS.

T2 sequence (Q9Y2K2 whole entry): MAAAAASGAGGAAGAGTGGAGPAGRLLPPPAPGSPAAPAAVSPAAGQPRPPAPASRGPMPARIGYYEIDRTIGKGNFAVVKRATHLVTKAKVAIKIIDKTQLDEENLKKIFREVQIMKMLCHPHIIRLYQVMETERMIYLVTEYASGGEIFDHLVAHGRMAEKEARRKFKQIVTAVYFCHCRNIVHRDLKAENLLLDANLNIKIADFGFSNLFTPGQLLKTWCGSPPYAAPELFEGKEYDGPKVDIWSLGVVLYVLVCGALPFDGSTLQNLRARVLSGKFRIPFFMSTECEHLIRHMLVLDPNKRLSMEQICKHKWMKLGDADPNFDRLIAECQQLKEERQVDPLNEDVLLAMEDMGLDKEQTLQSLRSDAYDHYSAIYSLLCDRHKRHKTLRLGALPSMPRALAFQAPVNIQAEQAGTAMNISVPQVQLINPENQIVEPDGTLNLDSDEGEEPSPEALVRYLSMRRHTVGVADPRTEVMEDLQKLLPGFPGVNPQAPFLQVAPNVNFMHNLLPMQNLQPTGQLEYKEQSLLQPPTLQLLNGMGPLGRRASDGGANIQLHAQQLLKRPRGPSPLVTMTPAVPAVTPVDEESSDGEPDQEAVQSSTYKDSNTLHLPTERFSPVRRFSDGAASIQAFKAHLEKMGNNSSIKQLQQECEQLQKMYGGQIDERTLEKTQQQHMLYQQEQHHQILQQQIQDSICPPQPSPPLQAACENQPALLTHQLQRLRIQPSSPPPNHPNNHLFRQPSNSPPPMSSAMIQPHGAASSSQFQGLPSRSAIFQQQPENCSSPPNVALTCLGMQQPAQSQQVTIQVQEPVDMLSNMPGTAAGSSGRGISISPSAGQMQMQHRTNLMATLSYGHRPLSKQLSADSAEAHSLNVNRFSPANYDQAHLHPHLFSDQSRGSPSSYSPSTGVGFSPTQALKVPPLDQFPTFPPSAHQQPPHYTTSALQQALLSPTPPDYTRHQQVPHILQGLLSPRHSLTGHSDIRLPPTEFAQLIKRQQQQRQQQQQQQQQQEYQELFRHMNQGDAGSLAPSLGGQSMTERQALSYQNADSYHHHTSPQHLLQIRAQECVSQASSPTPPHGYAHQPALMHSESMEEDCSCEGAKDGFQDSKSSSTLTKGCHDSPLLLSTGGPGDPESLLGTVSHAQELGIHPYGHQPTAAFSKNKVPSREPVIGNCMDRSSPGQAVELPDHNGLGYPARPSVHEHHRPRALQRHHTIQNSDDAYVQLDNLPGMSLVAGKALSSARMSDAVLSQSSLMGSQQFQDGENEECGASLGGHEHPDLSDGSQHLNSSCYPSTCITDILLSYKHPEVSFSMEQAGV
T3 sequence (P57059 whole entry): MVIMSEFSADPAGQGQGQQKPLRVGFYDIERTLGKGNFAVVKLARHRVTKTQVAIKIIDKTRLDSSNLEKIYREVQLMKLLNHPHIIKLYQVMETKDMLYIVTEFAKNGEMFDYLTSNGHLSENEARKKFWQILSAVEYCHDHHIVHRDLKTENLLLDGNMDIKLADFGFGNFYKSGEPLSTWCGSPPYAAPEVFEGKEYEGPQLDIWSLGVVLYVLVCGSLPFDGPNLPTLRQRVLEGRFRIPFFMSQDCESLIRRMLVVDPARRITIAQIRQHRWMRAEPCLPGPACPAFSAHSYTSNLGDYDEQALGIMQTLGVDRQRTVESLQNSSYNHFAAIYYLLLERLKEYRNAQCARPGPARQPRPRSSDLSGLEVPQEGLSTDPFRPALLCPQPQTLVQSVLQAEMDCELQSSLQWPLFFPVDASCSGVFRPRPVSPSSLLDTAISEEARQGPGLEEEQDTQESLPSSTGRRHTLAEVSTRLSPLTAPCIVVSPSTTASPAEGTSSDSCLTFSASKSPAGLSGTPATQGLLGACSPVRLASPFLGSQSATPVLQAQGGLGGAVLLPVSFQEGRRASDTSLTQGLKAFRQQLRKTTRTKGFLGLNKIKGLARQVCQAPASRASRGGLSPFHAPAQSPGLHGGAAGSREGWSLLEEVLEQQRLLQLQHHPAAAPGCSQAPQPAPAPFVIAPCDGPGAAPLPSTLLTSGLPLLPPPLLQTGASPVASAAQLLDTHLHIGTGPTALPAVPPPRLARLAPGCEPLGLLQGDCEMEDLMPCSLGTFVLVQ
T1 sequence (Q9H0K1 whole entry): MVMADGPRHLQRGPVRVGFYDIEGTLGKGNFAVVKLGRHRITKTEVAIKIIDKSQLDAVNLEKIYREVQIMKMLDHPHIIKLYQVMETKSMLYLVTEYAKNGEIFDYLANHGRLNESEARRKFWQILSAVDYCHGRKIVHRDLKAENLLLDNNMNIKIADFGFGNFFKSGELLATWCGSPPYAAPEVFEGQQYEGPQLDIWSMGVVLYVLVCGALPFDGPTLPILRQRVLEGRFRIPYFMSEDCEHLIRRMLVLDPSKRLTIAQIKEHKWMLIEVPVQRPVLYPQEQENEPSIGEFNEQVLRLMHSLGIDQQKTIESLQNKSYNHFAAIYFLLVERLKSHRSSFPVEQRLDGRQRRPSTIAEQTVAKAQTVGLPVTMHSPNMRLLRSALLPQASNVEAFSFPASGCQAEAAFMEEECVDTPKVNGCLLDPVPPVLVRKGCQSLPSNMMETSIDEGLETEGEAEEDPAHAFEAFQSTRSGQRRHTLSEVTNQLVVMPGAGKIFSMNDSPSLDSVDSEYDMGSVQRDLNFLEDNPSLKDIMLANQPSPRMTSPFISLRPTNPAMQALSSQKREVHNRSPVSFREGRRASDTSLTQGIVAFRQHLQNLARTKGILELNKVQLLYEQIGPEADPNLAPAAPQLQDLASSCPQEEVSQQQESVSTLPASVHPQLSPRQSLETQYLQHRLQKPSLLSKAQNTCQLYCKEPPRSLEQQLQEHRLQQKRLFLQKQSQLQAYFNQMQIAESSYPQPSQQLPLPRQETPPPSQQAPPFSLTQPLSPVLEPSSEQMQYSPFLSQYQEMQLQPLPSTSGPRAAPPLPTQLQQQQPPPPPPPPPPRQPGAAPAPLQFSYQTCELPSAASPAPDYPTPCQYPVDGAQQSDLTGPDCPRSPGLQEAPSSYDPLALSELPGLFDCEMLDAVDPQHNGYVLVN

For the compound `COc1cc(-c2cnc3cc(OC[C@@H]4CCN(CCO)C4)ccn23)cc(OC(F)F)c1C(=O)NC1CC1` [Cpd 349, N-cyclopropyl-2-(difluoromethoxy)-4-[7-[[(3R)-1-(2-hydroxyethyl)pyrrolidin-3-yl]methoxy]imidazo[1,2-a]pyridin-3-yl]-6-methoxy-benzamide], the IC50 in assay [1] was 0.01 to 10 nM; in assay [4] it was 0.01 to 10 nM; in assay [5] it was 10 to 100 nM. The EC50 in assay [2] (4 h) fell in the range of 100 to 1000 nM. Also, in assay [3], the “IL-10 FCmax median” value was “+++ (>4.5)”.

Regarding `COc1cc(-c2cnc3cc(OCCN4C[C@@H]5C[C@H]4CO5)ccn23)cc2c1C(=O)N(CC(F)(F)F)CC2` [compound 245, 8-methoxy-6-[7-[2-[(1S,4S)-2-oxa-5-azabicyclo[2.2.1]heptan-5-yl]ethoxy]imidazo[1,2-a]pyridin-3-yl]-2-(2,2,2-trifluoroethyl)-3,4-dihydro isoquinolin-1-one], the 50% inhibitory concentration (IC50) in assay [1] was 0.01 to 10 nM; in assay [4], 0.01 to 10 nM; in assay [5], > 500 nM. Further, the EC50 in assay [6] lay within 100 to 1000 nM. In assay [3], the “IL-10 FCmax median” value is recorded as “+++ (>4.5)”.

As for `COc1cc(-c2cnc3cc(OCCCN4CCC45COC5)ccn23)cc(OC(F)F)c1C(=O)NC1CC1` [compound 300, N-cyclopropyl-2-(difluoromethoxy)-6-methoxy-4-[7-[3-(6-oxa-1-azaspiro[3.3]heptan-1-yl)propoxy]imidazo[1,2-a]pyridin-3-yl]benzamide], the IC50 is 0.01 to 10 nM in assay [1], 0.01 to 10 nM in assay [4] and 10 to 100 nM in assay [5]. Moreover, the concentration giving a half-maximal response (EC50) in assay [2] (4 h) was in the range of 0.1 to 100 nM. Further, the “IL-10 FCmax median” value in assay [3] is recorded as “+++ (>4.5)”.

Turning to `COc1cc(-c2cnc3cc(OCC4CCCN(C(C)C)C4)ccn23)cc(OC(F)F)c1C(=O)NC1CC1` (stereo not drawn) [compound 280, N-cyclopropyl-2-(difluoromethoxy)-4-[7-[(1-isopropyl-3-piperidyl)methoxy]imidazo [1,2-a]pyridin-3-yl]-6-methoxy-benzamide], the 50% inhibitory concentration (IC50) in assay [1], in assay [4] and in assay [5] was 0.01 to 10 nM in each case. The 50% effective concentration (EC50) in assay [2] (4 h) is 0.1 to 100 nM. Besides, the “IL-10 FCmax median” value in assay [3] is “++ (>1.5-4.5)”.

With `COc1cc(-c2cnc3cc(OCC4CN(CC#N)C4)ccn23)cc(OC(F)F)c1C(=O)NC1CC1` [Cpd 322, 4-[7-[[1-(cyanomethyl)azetidin-3-yl]methoxy]imidazo[1,2-a]pyridin-3-yl]-N-cyclopropyl-2-(difluoromethoxy)-6-methoxy-benzamide], the IC50 in assay [1] fell in the range of 0.01 to 10 nM; in assay [4] it was 0.01 to 10 nM; in assay [5] it was 10 to 100 nM. Also, the 50% effective concentration (EC50) in assay [2] fell in the range of 0.1 to 100 nM. For the same compound, in assay [3], the “IL-10 FCmax median” value is recorded as “++ (>1.5-4.5)”.

On to `COc1cc(-c2cnc3cc(OCCN4CC[C@H](F)C4)ccn23)cc(OC(F)F)c1C(=O)NC1CC1` [Cpd 160, N-cyclopropyl-2-(difluoromethoxy)-4-[7-[2-[(3S)-3-fluoropyrrolidin-1-yl]ethoxy]imidazo[1,2-a]pyridin-3-yl]-6-methoxy-benzamide], for which the half-inhibitory concentration (IC50) in assay [1] lay within 0.01 to 10 nM; in assay [4], 0.01 to 10 nM; in assay [5], 10 to 100 nM. Further, the EC50 in assay [6] lay within 100 to 1000 nM.

Take `COc1cc(-c2cnc3cc(OCC4CCCCO4)ccn23)cc(OC(F)F)c1C(=O)NC1CC1` (stereo not drawn) [compound 48, N-cyclopropyl-2-(difluoromethoxy)-6-methoxy-4-[7-(tetrahydropyran-2-ylmethoxy)imidazo[1,2-a]pyridin-3-yl] benzamide]: the figures for the IC50 in assay [1], in assay [4] and in assay [5] were 0.01 to 10 nM, 0.01 to 10 nM and 10 to 100 nM, respectively. Further, in assay [6], the concentration for a half-maximal effect (EC50) was 0.1 to 100 nM.
